Source: US9592223B2, “Small molecule inhibitors of MALT1” (Cornell University, priority 2012, dated 2017)

Key:
nuclear c-REL and p65 = test: Western blots for c-REL and p65 in nuclear extracts of HBL-1 and TMD8 cells; assay type: cell-based, human; conditions: 24 hr, 200 nM for HBL-1 and 500 nM for TMD8
Protocol: MALT1 mediates c-REL translocation to the nucleus following BCR stimulation (Ferch et al., 2007). […] This selectivity towards c-REL had also been previously shown in MALT1 knockout mice and after MALT1 cleavage inhibition by the MALT1 blocking peptide Z-VRPR-FMK (Ferch et al., 2009; Ferch et al., 2007; Hailfinger et al., 2011).
Equal amounts of total protein (20-75 μg) were separated on sodium dodecyl sulfate-polyacrylamide gel electrophoresis (SDS-PAGE), and electrotransferred onto nitrocellulose membranes. Membranes were incubated with primary antibodies (MALT1, BCL-10, CYLD from Santa Cruz Biotechnologies, Santa Cruz, Calif.; A20 from eBioscience, San Diego, Calif.; phospho-IκB-α, IκB-α, c-REL, RELB from Cell Signaling, Danvers, Mass. and α-Tubulin from Sigma), followed by secondary antibodies conjugated to horseradish peroxidase, which were detected by chemiluminescence (Pierce, Thermo Scientific, Rockford, Ill.).

[1] = target: T1, LZ-MALT1 (MALT1 (340-789) fused with a leucine zipper dimerization motif) (Homo sapiens, UniProt Q9UDY8); test: LZ-MALT1 fluorescence assay (Ac-LRSR-AMC cleavage), screening and concentration response; assay type: biochemical; conditions: concentration response assay, 0.122 μM to 62.5 μM; read-out: IC50 (biochemical activity, in vitro)
T1 construct: His tag (N); made in house; host or cells: E. coli
T1 sequence (Q9UDY8 with tags, fused parts or gaps limits assumed): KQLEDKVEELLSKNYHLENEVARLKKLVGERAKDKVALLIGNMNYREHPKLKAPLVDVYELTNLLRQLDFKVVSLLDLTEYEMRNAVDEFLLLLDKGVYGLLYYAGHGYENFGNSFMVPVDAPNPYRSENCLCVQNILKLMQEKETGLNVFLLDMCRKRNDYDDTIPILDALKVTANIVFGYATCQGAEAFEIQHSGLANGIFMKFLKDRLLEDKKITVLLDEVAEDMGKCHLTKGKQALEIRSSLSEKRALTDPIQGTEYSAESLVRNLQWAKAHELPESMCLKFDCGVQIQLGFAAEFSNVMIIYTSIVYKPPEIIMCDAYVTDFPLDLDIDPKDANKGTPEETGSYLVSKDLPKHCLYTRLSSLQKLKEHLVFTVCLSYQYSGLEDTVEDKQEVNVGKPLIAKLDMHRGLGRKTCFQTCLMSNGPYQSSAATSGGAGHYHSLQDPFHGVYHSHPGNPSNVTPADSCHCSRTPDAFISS
Description: We reasoned that MALT1 small-molecule inhibitors might be useful chemical tools for studying MALT1 biology and treating MALT1 addicted tumors. However, full-length MALT1 and its paracaspase domain (amino acids 340-789) are naturally present in physiological solutions as a monomer, which has very low proteolytic activity. Caspases generally must homodimerize for maximal catalytic activity (Pop et al., 2006; Walker et al., 1994; Yin et al., 2006) and accordingly the recently reported structures of the paracaspase domain of MALT1 in complex with a peptide inhibitor are dimeric (Wiesmann et al., 2012; Yu et al., 2011). […]
Ac-LRSR-AMC was used as substrate and reactions were measured with excitation/emission wavelengths of 360/465 nm. […] The final percent inhibition was calculated with the formula: {[fluorescencetest compound(T2-T1)−fluorescenceneg ctrl(T2−T1)]/[fluorescencepos ctrl(T2−T1)−fluorescenceneg ctrl(T2−T1)]}×100. […]
The screening consisted of a 20 μl reaction in 384-well black plates (Greiner Bio One, Wemmel, Belgium, catalogue #784076) with 100 nM LZ-MALT1, 200 μM Ac-LRSR-AMC, and 12.5 μM test compound in buffer A (20 mM HEPES pH 7.5, 10 mM KCl, 1.5 mM MgCl2, 1 mM EDTA, 1 mM DTT, 0.01% Triton X-100). The reactions were measured with excitation/emission wavelengths of 360/465 nm using Envision Multilabel Reader (Perkin-Elmer, Waltham, Mass.). […]

LZ-MALT1 = target: T2, LZ-MALT1 (Homo sapiens, UniProt Q9UDY8); test: Dose-effect and time-course of MALT1 inhibition (pre-incubation, then Ac-LRSR-AMC); assay type: biochemical; conditions: pre-incubation 5 to 80 minutes
T2 construct: His tag (N); made in house; host or cells: E. coli
T2 sequence (Q9UDY8 with tags, fused parts or gaps limits assumed): as above
Protocol: The reactions were monitored in a SpectraMax M5 plate reader (Molecular Devices, Sunnyvale, Calif. USA) with excitation/emission wavelength at 360/465 nm and 20 seconds intervals. Normalized percentage of inhibition was calculated with the following formula: (M(T2-T1)−N(T2-T1))/(P(T2-T1)−N(T2-T1))*100, where M(T2-T1) is the difference signal of compound at time point 200s and 0s, N(T2-T1) is the difference signal of negative control buffer only, P(T2-T1) is the difference signal of positive control Z-VRPR-FMK.

COCCOc1nc(-c2ccc(Cl)c(Cl)c2)n(-c2ccc(NC(=O)CCl)cc2)n1 [MI-2]
nuclear c-REL (Western blot) (nuclear c-REL and p65): clear reduction of nuclear c-REL
nuclear p65 (Western blot) (nuclear c-REL and p65): did not affect p65 levels
IC50 [1]: ~5 µM
kind of inhibition (time dependence) (LZ-MALT1): covalent and irreversible inhibition
percent MALT1 inhibition reached (LZ-MALT1): ~100%
